Results from PMC4111740, “Ligand-Based Pharmacophore Modeling and Virtual Screening for the Discovery of Novel 17β-Hydroxysteroid Dehydrogenase 2 Inhibitors” (Journal of Medicinal Chemistry, 2014).
Read-outs that look alike come from different tables or passages of the source.

Experiments:
17β-HSD2 [1] = biological target: T1, 17β-HSD2 (Homo sapiens, UniProt P37059); assay: 17β-HSD2 activity in lysates of transfected HEK-293 cells (cell-free, radiolabeled estradiol); type: biochemical; details: for 17β-HSD2 Activity (in words): Table S2, virtual screening hits, tested at 20 μM in lysates
T1 construct: expressed in transfected cells; host or cells: HEK-293 (transient, calcium phosphate), lysate
T1 sequence (P37059 1-387): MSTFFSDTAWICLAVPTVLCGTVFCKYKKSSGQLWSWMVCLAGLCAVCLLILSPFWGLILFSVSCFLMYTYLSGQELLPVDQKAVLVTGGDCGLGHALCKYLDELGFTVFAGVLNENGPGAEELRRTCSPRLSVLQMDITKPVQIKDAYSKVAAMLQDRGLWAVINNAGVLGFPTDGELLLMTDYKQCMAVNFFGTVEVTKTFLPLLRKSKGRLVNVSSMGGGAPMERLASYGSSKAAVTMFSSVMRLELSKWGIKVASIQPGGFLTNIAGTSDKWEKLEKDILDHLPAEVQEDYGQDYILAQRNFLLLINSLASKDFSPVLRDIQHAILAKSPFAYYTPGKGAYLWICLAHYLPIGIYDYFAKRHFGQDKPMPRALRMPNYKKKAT
Protocol: Next, the 17β-HSD2 inhibitory activities of the chosen hits were evaluated in a cell-free assay. The activities were first determined at an inhibitor concentration of 20 μM using lysates of transfected HEK-293 cells. In all experiments, vehicle was included as negative control and N-(3-methoxyphenyl)-N-methyl-5-m-tolylthiophene-2-carboxamide (compound 19 from ref ([26])) as positive control.
HEK-293 cells were transfected by the calcium phosphate precipitation method with plasmids for human 17β-HSD1, 17β-HSD2, or 11β-HSD2. Cells were cultivated for 48 h, washed with phosphate-buffered saline, and centrifuged for 4 min at 150g. After removal of the supernatants, cell pellets were snap frozen in dry ice and stored at −80 °C until further use.
Lysates of human embryonic kidney cells (HEK-293) expressing either 17β-HSD1 or 17β-HSD2 were incubated for 10 min at 37 °C in TS2 buffer in a final volume of 22 μL containing either solvent (0.2% DMSO/chloroform) or the inhibitor at the respective concentration. N-(3-Methoxyphenyl)-N-methyl-5-m-tolylthiophene-2-carboxamide (compound 19 in ref ([26])) and apigenin[50] were used as positive controls for 17β-HSD1 and 17β-HSD2, respectively, in all experiments. 17β-HSD1 activity was measured in the presence of 190 nM unlabeled estrone, 10 nM radiolabeled estrone, and 500 μM NADPH. In contrast, 17β-HSD2 activity was determined in the presence of 190 nM unlabeled estradiol, 10 nM radiolabeled estradiol, and 500 μM NAD^+. Reactions were stopped after 10 min by adding an excess of unlabeled estradiol and estrone (1:1, 2 mM in methanol). Possible promiscuous enzyme inhibition by aggregate formation of the chemicals was excluded by measuring the inhibition of the enzyme activity by the compounds in the presence of 0.1% Triton X-100.[36] […] To exclude irreversible inhibition by the compounds investigated,[35] cell lysates were preincubated with the compounds for 0, 10, and 30 min, respectively, followed by measurement of the enzyme activity. […] The steroids were separated by TLC, followed by scintillation counting and calculation of substrate concentration. Data were collected from at least three independent measurements.

17β-HSD2 [2] = details: Table S1, cited from earlier work; for IC50: read-out: IC50 17β-HSD2 (test set)
17β-HSD3 = biological target: T2, 17β-HSD3 (Homo sapiens, UniProt P37058); assay: 17β-HSD3 activity in intact transfected HEK-293 cells; type: cell-based; details: for 17β-HSD3 intact inhibition class (n.i.): rest activity at 20 μM, Table 3; for 17β-HSD3 inhibition (in words): intact cells
T2 construct: expressed in transfected cells; host or cells: HEK-293 (transient, calcium phosphate), intact cells
T2 sequence (P37058 1-310): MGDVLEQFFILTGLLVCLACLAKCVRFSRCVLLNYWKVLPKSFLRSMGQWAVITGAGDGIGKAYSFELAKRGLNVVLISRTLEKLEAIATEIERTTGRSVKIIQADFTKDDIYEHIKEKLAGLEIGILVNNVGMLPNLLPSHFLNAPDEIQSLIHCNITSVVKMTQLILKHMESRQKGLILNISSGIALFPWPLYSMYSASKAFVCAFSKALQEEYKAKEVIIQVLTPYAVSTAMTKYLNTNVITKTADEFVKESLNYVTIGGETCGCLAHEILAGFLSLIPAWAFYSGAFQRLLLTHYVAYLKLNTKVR
Protocol: (§1) Human embryonic kidney cells (HEK-293) were cultivated in DMEM containing 4.5 g/L glucose, 10% fetal bovine serum, 100 U/mL penicillin, 0.1 mg/mL streptomycin, 1× MEM nonessential amino acids, and 10 mM HEPES buffer, pH 7.4. The cells were incubated at 37 °C until 80% confluency. The cells were transfected using the calcium phosphate method with expression plasmids for 17β-HSD2 and 17β-HSD3. After 24 h, the cells were trypsinized and seeded on poly-L-lysine-coated 96-well plates (15 000 cells/well).
(§2) The inhibitory activities were measured 24 h after seeding as follows: old medium was aspirated and replaced by 30 μL of charcoal-treated DMEM (cDMEM). Ten microliters of inhibitor dissolved in cDMEM into the respective concentration was added, and mixtures were preincubated at 37 °C for 20 min. 17β-HSD2 inhibitory activities were measured in the presence of 190 nM unlabeled estradiol and 10 nM radiolabeled estradiol. N-(3-Methoxyphenyl)-N-methyl-5-m-tolylthiophene-2-carboxamide (compound 19 in ref ([26])) was used as positive control. The reaction mixtures were incubated for 20 min, and the reactions were stopped by adding an excess of estradiol and estrone (1:1, 2 mM in methanol) to the mixture.
17β-HSD3 inhibitory activities were measured in the presence of 190 nM unlabeled androstenedione and 10 nM radiolabeled androstenedione. Benzophenone-1 was used as positive control. The reaction mixtures were incubated for 30 min, and the reactions were stopped by adding an excess of androstenedione and testosterone (1:1, 2 mM in methanol). The steroids were separated by TLC, followed by scintillation counting and calculation of substrate concentration. Data was obtained from three independent measurements.

17β-HSD2 [3] = biological target: T1, 17β-HSD2; assay: 17β-HSD2 activity in intact transfected HEK-293 cells; type: cell-based; details: intact HEK-293 cells
Protocol: as §1, §2

O=C(Cn1nnc2ccccc21)c1ccc(-c2ccccc2)cc1 [AK-918/11592002]
17β-HSD2 Activity (in words) (17β-HSD2 [1]): Inactive

CN1C(=O)C[C@H](c2ccccc2F)[C@@H]1[C@H](O)c1ccc(-c2ccccc2)s1 [Compound 8]
IC50 (17β-HSD2 [2]; ref SI 1, 2, 4): 10 nM

Oc1cccc(C(O)CNCc2ccncc2)c1 (stereo not shown) [AN-465/42246299]
17β-HSD2 Activity (in words) (17β-HSD2 [1]): Inactive

COc1cccc(-c2ccc(C(=O)N(C)Cc3cccc(O)c3)s2)c1F [Compound 6]
IC50 (17β-HSD2 [2]; ref SI 1, 2, 4): 61 nM

COC(=O)c1cc(NC(=O)c2ccc(OC)cc2)ccc1O [AN-652/43163172]
17β-HSD2 Activity (in words) (17β-HSD2 [1]): Inactive

O=S(=O)(Nc1cccc(O)c1)c1ccc(Br)cc1 [Compound 21]
17β-HSD3 intact inhibition class (n.i.) (17β-HSD3): n.i

COc1cc(C(=O)Nc2cc(C(F)(F)F)ccc2N2CCOCC2)ccc1O [AP-906/41927951]
17β-HSD2 Activity (in words) (17β-HSD2 [1]): Inactive

O=C(CSc1ccccc1)Nc1ccc(C(=O)Nc2ccc(O)cc2)cc1 [AN-979/42723474]
17β-HSD2 Activity (in words) (17β-HSD2 [1]): Inactive

CS(=O)(=O)Nc1ccc(-c2ccc(O)cc2)cc1 [319015-65-1]
17β-HSD2 enzyme inhibition (test set) (17β-HSD2 [2]; at 1 µM, ref SI 1, 2, 3, 5, 6): < 10%

Cc1ccccc1/C=N/NC(=O)Cn1nnc2ccccc21 [AK-968/11367105]
17β-HSD2 Activity (in words) (17β-HSD2 [1]): Inactive

O=C(COc1ccc(-c2ccccc2)cc1)Nc1ccccc1C(=O)NC1CCCCC1 [AN-329/42613159]
17β-HSD2 Activity (in words) (17β-HSD2 [1]): Inactive

COc1ccccc1NC(=O)CCC(=O)OC(C)C(=O)c1ccccc1 (stereo not shown) [AG-690/15435864]
17β-HSD2 Activity (in words) (17β-HSD2 [1]): Inactive

Cc1cc(C)c(OCC(=O)N/N=C/c2ccc(O)cc2O)c(Br)c1 [Compound 11]
17β-HSD2 inhibition in intact cells (in words) (17β-HSD2 [3]): concentration-dependently inhibited 17β-HSD2 | 17β-HSD3 inhibition (in words) (17β-HSD3): more active against 17β-HSD3 than 17β-HSD2

O=C(Cn1nnc2ccccc21)N/N=C/c1ccccc1F [AG-205/07947037]
17β-HSD2 Activity (in words) (17β-HSD2 [1]): Inactive

Oc1ccc(-c2cn3cc(C(F)(F)F)ccc3n2)cc1 [AQ-776/42801516]
17β-HSD2 Activity (in words) (17β-HSD2 [1]): Inactive

CC(=O)Nc1cccc(-c2ccc(O)cc2)c1 [462660-26-0]
17β-HSD2 enzyme inhibition (test set) (17β-HSD2 [2]; at 1 µM, ref SI 1, 2, 3, 5, 6): < 10%

CCn1c(Cc2ccccc2)nnc1SCC(=O)Nc1ccccc1OC [AG-690/40750820]
17β-HSD2 Activity (in words) (17β-HSD2 [1]): Inactive

C[C@]12CC[C@@H]3c4ccc(O)cc4C(=O)C[C@H]3[C@@H]1CCC2=O [1476-34-2]
17β-HSD2 enzyme inhibition (test set) (17β-HSD2 [2]; at 10 µM, ref SI 7, 10): < 10%

COc1ccccc1NC(=O)COc1ccc(/C=c2/sc3n(c2=O)CCN=3)cc1 [AH-487/15020191]
17β-HSD2 Activity (in words) (17β-HSD2 [1]): Inactive

Cc1ccc(NS(=O)(=O)c2cccc(Br)c2)cc1O [Compound 24]
17β-HSD3 intact inhibition class (n.i.) (17β-HSD3): n.i

CN(C)Cc1ccccc1Sc1ccc(O)cc1O [AE-641/30109032]
17β-HSD2 Activity (in words) (17β-HSD2 [1]): Inactive

CCCC(=O)Nc1ccc(C(=O)NCc2ccc(OC)cc2)cc1 [AJ-292/42647512]
17β-HSD2 Activity (in words) (17β-HSD2 [1]): Inactive

COc1ccc(OC)c(NC(=O)C(C)Oc2ccc(-c3ccccc3)cc2)c1 (stereo not shown) [AN-329/42958201]
17β-HSD2 Activity (in words) (17β-HSD2 [1]): Inactive

COc1ccc(-c2ccc(C(=O)N(C)Cc3cccc(O)c3)s2)cc1 [Compound 7]
IC50 (17β-HSD2 [2]; ref SI 1, 2, 4): 161 nM

COc1cc(C=Nc2ccc(OC(F)(F)F)cc2)ccc1O [AN-329/11450193]
17β-HSD2 Activity (in words) (17β-HSD2 [1]): Inactive

Oc1ccc(-c2ccc3c(O)cccc3c2)cc1 [Compound 1]
IC50 (17β-HSD2 [2]; ref SI 1, 2, 4): 302 nM

COc1ccccc1NCC(=O)N/N=C/c1sccc1C [AN-329/11413636]
17β-HSD2 Activity (in words) (17β-HSD2 [1]): Inactive

O=C(Nc1ccc(O)cc1)c1ccc2c(c1)C(=O)N(Cc1ccco1)C2=O [AN-979/41971109]
17β-HSD2 Activity (in words) (17β-HSD2 [1]): Inactive

Cc1cccc(-c2ccc(C(=O)N(C)Cc3cccc(O)c3)s2)c1 [Compound 2]
IC50 (17β-HSD2 [2]; ref SI 1, 2, 4): 164 nM

COc1ccc(C(=O)COC(=O)c2ccc(O)cc2)cc1 [AK-918/12108002]
17β-HSD2 Activity (in words) (17β-HSD2 [1]): Inactive

O=S(=O)(Nc1ccc(O)c(Cl)c1)c1ccc(F)cc1 [Compound 13]
17β-HSD2 inhibition in intact cells (in words) (17β-HSD2 [3]): concentration-dependently inhibited 17β-HSD2 | 17β-HSD3 inhibition (in words) (17β-HSD3): equipotent toward these two enzymes

O=C(CSc1nccc(O)n1)Nc1cccc2nsnc12 [Compound 15]
less potent than the most active hit (17β-HSD2) (17β-HSD2 [1]; relative to compound 12): 5 fold | 17β-HSD2 inhibition in intact cells (in words) (17β-HSD2 [3]): concentration-dependently inhibited 17β-HSD2

Cc1cc(C)c(S(=O)(=O)Nc2cccc(O)c2)cc1C [Compound 16]
17β-HSD3 inhibition (in words) (17β-HSD3): weak 17β-HSD3 inhibitors

Oc1cccc(-c2ccccc2)c1 [580-51-8]
17β-HSD2 enzyme inhibition (test set) (17β-HSD2 [2]; at 1 µM, ref SI 1, 2, 3, 5, 6): < 10%

Oc1cccc(-c2ccnc(-c3ccc(Cl)s3)c2)c1 [Compound 4]
IC50 (17β-HSD2 [2]; ref SI 3): 470 nM

O=C(COC(=O)c1ccc2c(c1)C(=O)N(c1cccc(O)c1)C2=O)c1ccccc1 [AK-918/37182008]
17β-HSD2 Activity (in words) (17β-HSD2 [1]): Inactive

CN1C(=O)C[C@H](c2ccccc2)[C@@H]1[C@H](O)c1ccc(-c2cccnc2)s1 [Compound 3]
IC50 (17β-HSD2 [2]; ref SI 1, 2, 4): 50 nM
